This series relates to CCRIS mutagenicity, Ames/micronucleus/aberration tests. The experiment in a line: CCRIS mutagenicity studies.
The mark [1] stands for this setting: Test System: AMES SALMONELLA TYPHIMURIUM, Strain/Indicator: TA98, Metabolic Activation: NONE, Method: STANDARD PLATE.
Where [2] appears, read: Test System: AMES SALMONELLA TYPHIMURIUM, Strain/Indicator: TA100, Metabolic Activation: NONE, Method: STANDARD PLATE.
The mark [3] stands for this setting: Test System: AMES SALMONELLA TYPHIMURIUM, Strain/Indicator: TA100, Metabolic Activation: RAT, LIVER, S-9, AROCLOR 1254, Method: STANDARD PLATE.
Where [4] appears, read: Test System: AMES SALMONELLA TYPHIMURIUM, Strain/Indicator: TA98, Metabolic Activation: NONE, Method: PREINCUBATION
The mark [5] stands for this setting: Test System: AMES SALMONELLA TYPHIMURIUM, Strain/Indicator: TA100, Metabolic Activation: NONE, Method: PREINCUBATION
Where [6] appears, read: Test System: AMES SALMONELLA TYPHIMURIUM, Strain/Indicator: TA98, Metabolic Activation: RAT, LIVER, S-9, AROCLOR 1254, Method: STANDARD PLATE.

The source made the active and inactive calls. The rule behind the calls is not given here.

For twelve compounds, mutagenic call results are on record in PubChem BioAssay AID1259407 (Chemical Carcinogenesis Research Information System (CCRIS), 2018).

On to `Cc1ccc(C)c2c1c1ccccc1n2C`, for which the mutagenic call is, setting by setting: under setting [1], “inactive; negative”; (Test System: AMES SALMONELLA TYPHIMURIUM, Strain/Indicator: TA98, Metabolic Activation: RAT LIVER S-9, AROCLOR 1254, Method: STANDARD PLATE) “active; positive”; under setting [2], “inactive; negative”; (Test System: AMES SALMONELLA TYPHIMURIUM, Strain/Indicator: TA100, Metabolic Activation: RAT LIVER S-9, AROCLOR 1254, Method: STANDARD PLATE) “active; positive”.

As for `COc1ccc(/C(=C/C(=O)N2CCOCC2)c2ccc(F)cc2)cc1OC`, the mutagenic call is, setting by setting: (End Point: IN VITRO CHROMOSOMAL ABERRATIONS, Test System: CHINESE HAMSTER LUNG (CHL) CELLS, Metabolic Activation: NONE) “inactive; negative”; (End Point: IN VITRO CHROMOSOMAL ABERRATIONS, Test System: CHINESE HAMSTER LUNG (CHL) CELLS, Metabolic Activation: S-9) “active; positive (structural changes)”.

With `c1ccc2nc3c4ccccc4c4ccccc4c3cc2c1`, for the setting “Test System: AMES SALMONELLA TYPHIMURIUM, Strain/Indicator: TA100, Metabolic Activation: RAT, LIVER, S-9, PHENOBARBITAL AND 5,6-BENZOFLAVONE, Method: STANDARD PLATE”, the mutagenic call was “active; positive”.

Turning to `CCON(OC(C)=O)C(=O)c1ccccc1`, the mutagenic call by setting is: under setting [1], “active; positive”; under setting [2], “active; positive”; (Test System: AMES SALMONELLA TYPHIMURIUM, Strain/Indicator: TA100, Metabolic Activation: RAT, S-9, AROCLOR, Method: STANDARD PLATE) “active; positive”.

Turning to `ClN1C2c3ccccc3-c3ccccc3C21` (stereo unspecified), the mutagenic call is, setting by setting: under setting [2], “active; positive”; (Test System: CHINESE HAMSTER V-79, Strain/Indicator: V-79/6-THIOGUANINE, Metabolic Activation: NONE, Method: STANDARD PLATE) “active; positive”.

For the compound `C1CN1c1nc(N2CC2)nc(N2CC2)n1`, the mutagenic call is “active; positive” under setting [1]; “active; positive” under setting [2]; “active; positive” (Test System: CHINESE HAMSTER V-79, Strain/Indicator: V-79/6-THIOGUANINE, Metabolic Activation: NONE, Method: FLASK ASSAY); “active; positive” (Test System: E. COLI, Strain/Indicator: WP2 (HCR), Metabolic Activation: NONE, Method: STANDARD PLATE).

In the case of `Cc1c2cc(CO)ccc2nc2c3c(ccc12)[C@H](O)[C@@H](O)C=C3`, the mutagenic call under setting [3] is “active; positive”.

On to `CC1=CC(=O)c2c(O)c3c(c(O)c2C1=O)C1C(O)C(C3=O)C23C(=O)c4c(O)c(C)cc(O)c4C(O)=C2C(=O)CC(O)C13` (stereo unspecified), for which, where the note is “Test System: UDS RODENT HEPATOCYTES, Strain/Indicator: THY INCORP, Metabolic Activation: NONE, Method: AUTORADIOGRAPHY”, the mutagenic call is “inactive; negative”.

Consider `Cc1nc2ccc(N)cc2nc1C`, for which the mutagenic call is “active; positive” under setting [4]; “active; positive” (Test System: AMES SALMONELLA TYPHIMURIUM, Strain/Indicator: TA98, Metabolic Activation: RAT, LIVER, S-9, PCB, Method: PREINCUBATION); “inactive; negative” under setting [5]; “active; positive” (Test System: AMES SALMONELLA TYPHIMURIUM, Strain/Indicator: TA100, Metabolic Activation: RAT, LIVER, S-9, PCB, Method: PREINCUBATION).

Consider `ClC1=C(Cl)[C@]2(Cl)[C@H]3[C@H]([C@@H]4C=C[C@H]3C4)[C@@]1(Cl)C2(Cl)Cl`, for which the mutagenic call (Test System: AMES SALMONELLA TYPHIMURIUM, Strain/Indicator: TA97, Metabolic Activation: HAMSTER, LIVER, S-9, AROCLOR 1254 (10 OR 30%), Method: PREINCUBATION) is “inactive; negative”; the mutagenic call (Test System: AMES SALMONELLA TYPHIMURIUM, Strain/Indicator: TA97, Metabolic Activation: NONE, Method: PREINCUBATION) was “inactive; negative”; the mutagenic call (Test System: AMES SALMONELLA TYPHIMURIUM, Strain/Indicator: TA97, Metabolic Activation: NONE, Method: STANDARD PLATE) is “inactive; negative”; the mutagenic call (Test System: AMES SALMONELLA TYPHIMURIUM, Strain/Indicator: TA97, Metabolic Activation: RAT, LIVER, S-9, AROCLOR 1254 (10 OR 30%), Method: PREINCUBATION) was “inactive; negative”; the mutagenic call (Test System: AMES SALMONELLA TYPHIMURIUM, Strain/Indicator: TA97, Metabolic Activation: RAT, LIVER, S-9, AROCLOR 1254, Method: STANDARD PLATE) is “inactive; negative”; the mutagenic call (Test System: AMES SALMONELLA TYPHIMURIUM, Strain/Indicator: TA98, Metabolic Activation: HAMSTER, LIVER, S-9, AROCLOR 1254 (10 OR 30%), Method: PREINCUBATION) is “inactive; negative”. The mutagenic call is “inactive; negative” under setting [4]; “inactive; negative” under setting [1]; “inactive; negative” (Test System: AMES SALMONELLA TYPHIMURIUM, Strain/Indicator: TA98, Metabolic Activation: RAT, LIVER, S-9, AROCLOR 1254 (10 OR 30%), Method: PREINCUBATION); “inactive; negative” under setting [6]; “inactive; negative” (Test System: AMES SALMONELLA TYPHIMURIUM, Strain/Indicator: TA100, Metabolic Activation: HAMSTER, LIVER, S-9, AROCLOR 1254 (10 OR 30%), Method: PREINCUBATION); “inactive; negative” under setting [5]. Moreover, the mutagenic call is, setting by setting: under setting [2], “inactive; negative”; (Test System: AMES SALMONELLA TYPHIMURIUM, Strain/Indicator: TA100, Metabolic Activation: RAT, LIVER, S-9, AROCLOR 1254 (10 OR 30%), Method: PREINCUBATION) “inactive; negative”; under setting [3], “inactive; negative”; (Test System: AMES SALMONELLA TYPHIMURIUM, Strain/Indicator: TA102, Metabolic Activation: NONE, Method: STANDARD PLATE) “inactive; negative”; (Test System: AMES SALMONELLA TYPHIMURIUM, Strain/Indicator: TA102, Metabolic Activation: RAT, LIVER, S-9, AROCLOR 1254, Method: STANDARD PLATE) “inactive; negative”; (Test System: AMES SALMONELLA TYPHIMURIUM, Strain/Indicator: TA1535, Metabolic Activation: HAMSTER, LIVER, S-9, AROCLOR 1254 (10 OR 30%), Method: PREINCUBATION) “inactive; negative”. Moreover, the mutagenic call runs as follows: (Test System: AMES SALMONELLA TYPHIMURIUM, Strain/Indicator: TA1535, Metabolic Activation: NONE, Method: PREINCUBATION) “inactive; negative”; (Test System: AMES SALMONELLA TYPHIMURIUM, Strain/Indicator: TA1535, Metabolic Activation: RAT, LIVER, S-9, AROCLOR 1254 (10 OR 30%), Method: PREINCUBATION) “inactive; negative”; (Test System: AMES SALMONELLA TYPHIMURIUM, Strain/Indicator: TA1537, Metabolic Activation: HAMSTER, LIVER, S-9, AROCLOR 1254 (30%), Method: PREINCUBATION) “inactive; negative”; (Test System: AMES SALMONELLA TYPHIMURIUM, Strain/Indicator: TA1537, Metabolic Activation: NONE, Method: PREINCUBATION) “inactive; negative”; (Test System: AMES SALMONELLA TYPHIMURIUM, Strain/Indicator: TA1537, Metabolic Activation: RAT, LIVER, S-9, AROCLOR 1254 (30%), Method: PREINCUBATION) “inactive; negative”.

Turning to `COC(=O)[C@H]1O[C@@H]1c1ccccc1`, the mutagenic call was “inactive; negative” under setting [1]; “inactive; negative” under setting [6]; “inactive; negative” under setting [3]; “inactive; negative” (Test System: AMES SALMONELLA TYPHIMURIUM, Strain/Indicator: TA1535, Metabolic Activation: NONE, Method: STANDARD PLATE); “inactive; negative” (Test System: AMES SALMONELLA TYPHIMURIUM, Strain/Indicator: TA1535, Metabolic Activation: RAT, LIVER, S-9, AROCLOR 1254, Method: STANDARD PLATE); “inactive; negative” (Test System: AMES SALMONELLA TYPHIMURIUM, Strain/Indicator: TA1537, Metabolic Activation: NONE, Method: STANDARD PLATE). Besides, the mutagenic call (Test System: AMES SALMONELLA TYPHIMURIUM, Strain/Indicator: TA1537, Metabolic Activation: RAT, LIVER, S-9, AROCLOR 1254, Method: STANDARD PLATE) is “inactive; negative”; the mutagenic call (Test System: AMES SALMONELLA TYPHIMURIUM, Strain/Indicator: TA1538, Metabolic Activation: NONE, Method: STANDARD PLATE) was “inactive; negative”; the mutagenic call (Test System: AMES SALMONELLA TYPHIMURIUM, Strain/Indicator: TA1538, Metabolic Activation: RAT, LIVER, S-9, AROCLOR 1254, Method: STANDARD PLATE) is “inactive; negative”.

As to `O=C(Nc1ccc([N+](=O)[O-])cc1)c1csc([N+](=O)[O-])c1`, the mutagenic call was “active; positive” under setting [1] and “active; positive” under setting [2].
